From article PMC6591251, “Discovery of potent necroptosis inhibitors targeting RIPK1 kinase activity for the treatment of inflammatory disorder and cancer metastasis” (Cell Death & Disease, 2019)

How the values were obtained:
Experiment in all cases: RBC kinase panel
Assay type in all cases: biochemical
Conditions in all cases: ATP 10 μM, Data1, Data2
[1] = target: T1, ABL2/ARG (Homo sapiens, UniProt P42684)
T1 construct: purchased Reaction Biology Corporation
Outline: (§1)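 Single-point screen: 1 μM compound, duplicate wells, 369-kinase human panel, ATP fixed at 10 μM.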

[2] = target: T2, AKT1 (Homo sapiens, UniProt P31749)
T2 construct: purchased Reaction Biology Corporation
Outline: as §1

[3] = target: T3, BRK (Homo sapiens, UniProt Q13882)
T3 construct: purchased Reaction Biology Corporation
Outline: as §1

[4] = target: T4, CDK1/cyclin E (Homo sapiens, UniProt P06493)
T4 construct: purchased Reaction Biology Corporation
Outline: as §1

[5] = target: T5, CDK17/cyclin Y (PCTK2) (Homo sapiens, UniProt Q00537)
T5 construct: purchased Reaction Biology Corporation
Outline: as §1

[6] = target: T6, CDK18/cyclin Y (PCTK3) (Homo sapiens, UniProt Q07002)
T6 construct: purchased Reaction Biology Corporation
Outline: as §1

[7] = target: T7, CDK9/cyclin K (Homo sapiens, UniProt P50750)
T7 construct: purchased Reaction Biology Corporation
Outline: as §1

[8] = target: T8, CLK2 (Homo sapiens, UniProt P49760)
T8 construct: purchased Reaction Biology Corporation
Outline: as §1

[9] = target: T9, CLK3 (Homo sapiens, UniProt P49761)
T9 construct: purchased Reaction Biology Corporation
Outline: as §1

[10] = target: T10, DMPK (Homo sapiens, UniProt Q09013)
T10 construct: purchased Reaction Biology Corporation
Outline: as §1

[11] = target: T11, DYRK3 (Homo sapiens, UniProt O43781)
T11 construct: purchased Reaction Biology Corporation
Outline: as §1

[12] = target: T12, EPHA7 (Homo sapiens, UniProt Q15375)
T12 construct: purchased Reaction Biology Corporation
Outline: as §1

[13] = target: T13, EPHB4 (Homo sapiens, UniProt P54760)
T13 construct: purchased Reaction Biology Corporation
Outline: as §1

[14] = target: T14, ERK1 (Homo sapiens, UniProt P27361)
T14 construct: purchased Reaction Biology Corporation
Outline: as §1

[15] = target: T15, FGFR3 (Homo sapiens, UniProt P22607)
T15 construct: purchased Reaction Biology Corporation
Outline: as §1

[16] = target: T16, GLK/MAP4K3 (Homo sapiens, UniProt Q8IVH8)
T16 construct: purchased Reaction Biology Corporation
Outline: as §1

[17] = target: T17, IRR/INSRR (Homo sapiens, UniProt P14616)
T17 construct: purchased Reaction Biology Corporation
Outline: as §1

[18] = target: T18, LOK/STK10 (Homo sapiens, UniProt O94804)
T18 construct: purchased Reaction Biology Corporation
Outline: as §1

[19] = target: T19, LRRK2 (Homo sapiens, UniProt Q5S007)
T19 construct: purchased Reaction Biology Corporation
Outline: as §1

[20] = target: T20, MARK2/PAR-1Ba (Homo sapiens, UniProt Q7KZI7)
T20 construct: purchased Reaction Biology Corporation
Outline: as §1

[21] = target: T21, MARK3 (Homo sapiens, UniProt P27448)
T21 construct: purchased Reaction Biology Corporation
Outline: as §1

[22] = target: T22, MEKK1 (Homo sapiens, UniProt Q13233)
T22 construct: purchased Reaction Biology Corporation
Outline: as §1

[23] = target: T23, MST1/STK4 (Homo sapiens, UniProt Q13043)
T23 construct: purchased Reaction Biology Corporation
Outline: as §1

[24] = target: T24, MYLK4 (Homo sapiens, UniProt Q86YV6)
T24 construct: purchased Reaction Biology Corporation
Outline: as §1

[25] = target: T25, NIM1 (Homo sapiens, UniProt Q8IY84)
T25 construct: purchased Reaction Biology Corporation
Outline: as §1

[26] = target: T26, OSR1/OXSR1 (Homo sapiens, UniProt O95747)
T26 construct: purchased Reaction Biology Corporation
Outline: as §1

[27] = target: T27, PAK5 (Homo sapiens, UniProt Q9P286)
T27 construct: purchased Reaction Biology Corporation
Outline: as §1

[28] = target: T28, PKCmu/PRKD1 (Homo sapiens, UniProt Q15139)
T28 construct: purchased Reaction Biology Corporation
Outline: as §1

[29] = target: T29, PKCtheta (Homo sapiens, UniProt Q04759)
T29 construct: purchased Reaction Biology Corporation
Outline: as §1

[30] = target: T30, RSK1 (Homo sapiens, UniProt Q15418)
T30 construct: purchased Reaction Biology Corporation
Outline: as §1

[31] = target: T31, SIK3 (Homo sapiens, UniProt Q9Y2K2)
T31 construct: purchased Reaction Biology Corporation
Outline: as §1

[32] = target: T32, SRPK1 (Homo sapiens, UniProt Q96SB4)
T32 construct: purchased Reaction Biology Corporation
Outline: as §1

[33] = target: T33, TAOK1 (Homo sapiens, UniProt Q7L7X3)
T33 construct: purchased Reaction Biology Corporation
Outline: as §1

T27 sequence (Q9P286 whole entry): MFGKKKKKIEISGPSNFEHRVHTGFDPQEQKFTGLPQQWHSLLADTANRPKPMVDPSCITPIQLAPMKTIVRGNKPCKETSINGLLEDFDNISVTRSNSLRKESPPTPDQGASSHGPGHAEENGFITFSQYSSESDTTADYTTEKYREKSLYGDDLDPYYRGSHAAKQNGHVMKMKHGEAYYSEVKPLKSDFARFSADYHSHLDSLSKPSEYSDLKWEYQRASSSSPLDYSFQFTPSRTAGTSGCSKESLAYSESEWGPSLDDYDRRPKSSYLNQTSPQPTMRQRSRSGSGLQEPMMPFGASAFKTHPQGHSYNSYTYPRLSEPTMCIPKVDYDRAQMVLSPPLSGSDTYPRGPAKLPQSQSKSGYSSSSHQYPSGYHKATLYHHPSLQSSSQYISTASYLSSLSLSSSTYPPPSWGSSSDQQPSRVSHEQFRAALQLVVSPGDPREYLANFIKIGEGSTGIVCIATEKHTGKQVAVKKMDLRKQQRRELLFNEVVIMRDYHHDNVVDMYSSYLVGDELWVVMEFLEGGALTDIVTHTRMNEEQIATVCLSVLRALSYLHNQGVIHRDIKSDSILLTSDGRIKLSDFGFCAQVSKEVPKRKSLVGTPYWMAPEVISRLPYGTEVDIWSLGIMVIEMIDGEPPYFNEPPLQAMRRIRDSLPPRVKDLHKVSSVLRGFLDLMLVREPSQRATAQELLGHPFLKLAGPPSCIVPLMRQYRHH
T24 sequence (Q86YV6 whole entry): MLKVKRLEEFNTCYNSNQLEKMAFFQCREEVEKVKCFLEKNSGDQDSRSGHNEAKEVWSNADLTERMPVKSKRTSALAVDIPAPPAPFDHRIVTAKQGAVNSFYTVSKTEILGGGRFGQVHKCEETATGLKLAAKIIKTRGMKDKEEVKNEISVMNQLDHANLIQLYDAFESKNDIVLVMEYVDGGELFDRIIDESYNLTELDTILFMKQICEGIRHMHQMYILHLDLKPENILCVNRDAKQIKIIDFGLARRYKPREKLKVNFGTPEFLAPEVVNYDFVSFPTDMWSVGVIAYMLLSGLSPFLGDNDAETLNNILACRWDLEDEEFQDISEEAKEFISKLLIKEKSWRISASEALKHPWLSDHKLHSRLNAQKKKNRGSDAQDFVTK
T2 sequence (P31749 whole entry): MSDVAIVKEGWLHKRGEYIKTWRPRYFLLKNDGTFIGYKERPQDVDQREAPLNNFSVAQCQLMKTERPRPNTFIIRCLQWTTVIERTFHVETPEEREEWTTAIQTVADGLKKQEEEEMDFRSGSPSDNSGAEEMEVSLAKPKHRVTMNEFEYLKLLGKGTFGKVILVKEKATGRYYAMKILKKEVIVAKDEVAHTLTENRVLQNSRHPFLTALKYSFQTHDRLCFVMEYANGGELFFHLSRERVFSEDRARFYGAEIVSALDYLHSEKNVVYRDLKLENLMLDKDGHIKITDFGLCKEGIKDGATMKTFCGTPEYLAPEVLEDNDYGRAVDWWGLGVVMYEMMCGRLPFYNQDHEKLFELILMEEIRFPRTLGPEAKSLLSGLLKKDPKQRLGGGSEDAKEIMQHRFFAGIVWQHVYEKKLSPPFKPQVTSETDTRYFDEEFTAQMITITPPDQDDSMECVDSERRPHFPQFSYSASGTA
T33 sequence (Q7L7X3 whole entry): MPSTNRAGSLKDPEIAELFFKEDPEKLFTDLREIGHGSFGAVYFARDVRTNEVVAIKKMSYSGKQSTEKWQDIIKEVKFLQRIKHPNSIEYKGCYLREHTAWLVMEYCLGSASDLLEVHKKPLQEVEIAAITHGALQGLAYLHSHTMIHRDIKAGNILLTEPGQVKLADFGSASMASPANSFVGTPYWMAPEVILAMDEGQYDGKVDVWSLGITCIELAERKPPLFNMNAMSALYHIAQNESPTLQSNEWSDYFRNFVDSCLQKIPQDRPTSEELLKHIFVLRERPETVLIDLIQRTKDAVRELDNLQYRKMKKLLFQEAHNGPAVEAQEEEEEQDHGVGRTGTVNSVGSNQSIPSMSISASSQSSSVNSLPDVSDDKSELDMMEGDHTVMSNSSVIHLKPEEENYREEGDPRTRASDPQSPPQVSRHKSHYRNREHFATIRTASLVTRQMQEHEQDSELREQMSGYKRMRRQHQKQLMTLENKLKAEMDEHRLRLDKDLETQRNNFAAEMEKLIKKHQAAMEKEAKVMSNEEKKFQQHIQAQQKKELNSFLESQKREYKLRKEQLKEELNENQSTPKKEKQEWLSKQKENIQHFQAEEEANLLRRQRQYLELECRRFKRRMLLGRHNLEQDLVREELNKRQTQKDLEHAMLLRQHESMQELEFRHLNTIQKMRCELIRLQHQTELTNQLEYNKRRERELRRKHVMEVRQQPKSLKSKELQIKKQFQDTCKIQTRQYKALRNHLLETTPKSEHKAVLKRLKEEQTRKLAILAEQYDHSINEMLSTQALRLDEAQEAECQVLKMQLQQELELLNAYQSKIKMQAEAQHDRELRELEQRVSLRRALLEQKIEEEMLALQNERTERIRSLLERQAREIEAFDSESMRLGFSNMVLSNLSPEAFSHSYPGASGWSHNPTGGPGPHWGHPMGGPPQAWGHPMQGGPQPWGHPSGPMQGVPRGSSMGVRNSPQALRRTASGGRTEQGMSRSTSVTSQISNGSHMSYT
T8 sequence (P49760 whole entry): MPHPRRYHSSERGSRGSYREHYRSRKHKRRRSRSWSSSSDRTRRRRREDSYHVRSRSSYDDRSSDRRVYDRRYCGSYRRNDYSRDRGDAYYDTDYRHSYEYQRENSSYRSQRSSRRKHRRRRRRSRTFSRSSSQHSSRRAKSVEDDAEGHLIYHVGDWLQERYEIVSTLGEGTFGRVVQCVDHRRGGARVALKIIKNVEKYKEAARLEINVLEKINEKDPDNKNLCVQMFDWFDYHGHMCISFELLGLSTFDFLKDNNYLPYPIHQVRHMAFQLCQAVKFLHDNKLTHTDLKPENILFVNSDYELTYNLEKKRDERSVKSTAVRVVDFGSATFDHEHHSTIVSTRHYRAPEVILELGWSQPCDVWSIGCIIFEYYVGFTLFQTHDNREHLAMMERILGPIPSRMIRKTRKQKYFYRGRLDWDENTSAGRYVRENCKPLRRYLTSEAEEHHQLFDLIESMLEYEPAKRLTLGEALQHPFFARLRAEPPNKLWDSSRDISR
T18 sequence (O94804 whole entry): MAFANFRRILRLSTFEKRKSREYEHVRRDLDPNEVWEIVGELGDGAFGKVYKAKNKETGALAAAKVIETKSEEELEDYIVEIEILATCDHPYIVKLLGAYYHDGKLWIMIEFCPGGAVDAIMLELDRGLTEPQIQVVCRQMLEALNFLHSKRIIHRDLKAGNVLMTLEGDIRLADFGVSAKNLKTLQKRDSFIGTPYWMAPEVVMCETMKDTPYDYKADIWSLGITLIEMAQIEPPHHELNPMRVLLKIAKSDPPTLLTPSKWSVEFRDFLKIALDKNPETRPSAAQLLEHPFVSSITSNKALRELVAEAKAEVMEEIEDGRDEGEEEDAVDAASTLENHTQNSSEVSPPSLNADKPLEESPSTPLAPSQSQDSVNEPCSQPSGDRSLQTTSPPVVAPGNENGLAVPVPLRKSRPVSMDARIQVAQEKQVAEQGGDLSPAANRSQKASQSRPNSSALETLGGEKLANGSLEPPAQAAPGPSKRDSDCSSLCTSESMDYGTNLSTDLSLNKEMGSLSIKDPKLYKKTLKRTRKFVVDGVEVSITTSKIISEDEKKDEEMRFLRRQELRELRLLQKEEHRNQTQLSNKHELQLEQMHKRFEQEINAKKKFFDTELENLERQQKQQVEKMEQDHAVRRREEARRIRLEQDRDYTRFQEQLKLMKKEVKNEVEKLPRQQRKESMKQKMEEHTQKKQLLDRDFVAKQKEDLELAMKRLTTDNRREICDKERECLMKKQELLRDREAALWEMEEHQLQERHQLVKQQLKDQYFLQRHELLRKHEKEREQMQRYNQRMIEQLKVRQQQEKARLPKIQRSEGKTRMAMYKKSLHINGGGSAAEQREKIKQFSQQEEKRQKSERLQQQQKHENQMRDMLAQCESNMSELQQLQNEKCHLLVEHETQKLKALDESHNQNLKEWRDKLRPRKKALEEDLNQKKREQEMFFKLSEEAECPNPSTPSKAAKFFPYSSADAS
T13 sequence (P54760 16-987): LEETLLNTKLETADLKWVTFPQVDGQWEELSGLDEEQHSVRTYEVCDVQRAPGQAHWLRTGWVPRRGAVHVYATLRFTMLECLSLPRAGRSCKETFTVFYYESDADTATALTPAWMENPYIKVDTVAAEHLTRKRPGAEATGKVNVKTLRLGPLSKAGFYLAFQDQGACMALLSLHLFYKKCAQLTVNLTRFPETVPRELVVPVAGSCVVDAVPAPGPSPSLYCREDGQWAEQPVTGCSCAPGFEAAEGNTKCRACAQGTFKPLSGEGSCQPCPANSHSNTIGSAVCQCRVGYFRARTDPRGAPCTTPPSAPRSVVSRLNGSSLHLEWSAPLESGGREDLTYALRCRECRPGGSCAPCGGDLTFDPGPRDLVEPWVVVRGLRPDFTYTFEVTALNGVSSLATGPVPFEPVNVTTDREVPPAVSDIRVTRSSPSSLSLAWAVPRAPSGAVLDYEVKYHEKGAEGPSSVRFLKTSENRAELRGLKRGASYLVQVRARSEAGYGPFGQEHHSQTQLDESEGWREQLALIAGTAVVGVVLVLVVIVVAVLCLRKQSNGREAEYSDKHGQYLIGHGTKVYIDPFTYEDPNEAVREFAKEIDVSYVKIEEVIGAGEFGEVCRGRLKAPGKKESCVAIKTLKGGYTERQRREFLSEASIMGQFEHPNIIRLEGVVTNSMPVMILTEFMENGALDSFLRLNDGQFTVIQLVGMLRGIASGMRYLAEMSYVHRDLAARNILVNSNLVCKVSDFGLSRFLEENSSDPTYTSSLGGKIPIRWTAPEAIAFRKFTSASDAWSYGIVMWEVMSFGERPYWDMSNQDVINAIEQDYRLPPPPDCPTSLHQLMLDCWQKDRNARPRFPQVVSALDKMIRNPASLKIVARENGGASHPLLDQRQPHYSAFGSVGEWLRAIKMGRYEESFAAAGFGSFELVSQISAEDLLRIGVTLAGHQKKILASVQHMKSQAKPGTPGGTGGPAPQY

## CC(=O)Nc1nc2ccc(-c3cnc(C)c(NC(=O)OC4CCCCC4)c3)cc2s1 [PK68, cyclohexyl (5-(2-acetamidobenzo[d]thiazol-6-yl)-2-methylpyridin-3-yl)carbamate]
[1]; 1 μM
  Activity%: 91.15%
[1]
  activity at 1 µM: 91.9%
[2]; 1 μM
  Activity%: 99.12%
[2]
  activity at 1 µM: 99.2%
[3]; 1 μM
  Activity%: 96.14%
[3]
  activity at 1 µM: 97.5%
[4]; 1 μM
  Activity%: 101.92%
[4]
  activity at 1 µM: 102%
[5]; 1 μM
  Activity%: 77.31%
[5]
  activity at 1 µM: 79%
[6]; 1 μM
  Activity%: 106.96%
[6]
  activity at 1 µM: 107%
[7]; 1 μM
  Activity%: 104.96%
[7]
  activity at 1 µM: 106%
[8]; 1 μM
  Activity%: 77.67%
[8]
  activity at 1 µM: 80.5%
[9]; 1 μM
  Activity%: 99.85%
[9]
  activity at 1 µM: 101%
[10]; 1 μM
  Activity%: 100.30%
[10]
  activity at 1 µM: 101%
[11]; 1 μM
  Activity%: 81.73%
[11]
  activity at 1 µM: 83%
[12]; 1 μM
  Activity%: 85.80%
[12]
  activity at 1 µM: 86.9%
[13]; 1 μM
  Activity%: 99.18%
[13]
  activity at 1 µM: 101%
[14]; 1 μM
  Activity%: 87.90%
[14]
  activity at 1 µM: 91.6%
[15]; 1 μM
  Activity%: 90.12%
[15]
  activity at 1 µM: 90.5%
[16]; 1 μM
  Activity%: 102.14%
[16]
  activity at 1 µM: 104%
[17]; 1 μM
  Activity%: 96.94%
[17]
  activity at 1 µM: 98%
[18]; 1 μM
  Activity%: 97.50%
[18]
  activity at 1 µM: 97.9%
[19]; 1 μM
  Activity%: 66.88%
[19]
  activity at 1 µM: 67.7%
[20]; 1 μM
  Activity%: 107.76%
[20]
  activity at 1 µM: 110%
[21]; 1 μM
  Activity%: 103.78%
[21]
  activity at 1 µM: 104%
[22]; 1 μM
  Activity%: 92.88%
[22]
  activity at 1 µM: 95.3%
[23]; 1 μM
  Activity%: 100.43%
[23]
  activity at 1 µM: 100%
[24]; 1 μM
  Activity%: 89.75%
[24]
  activity at 1 µM: 92.7%
[25]; 1 μM
  Activity%: 96.79%
[25]
  activity at 1 µM: 97.5%
[26]; 1 μM
  Activity%: 102.40%
[26]
  activity at 1 µM: 105%
[27]; 1 μM
  Activity%: 98.16%
[27]
  activity at 1 µM: 102%
[28]; 1 μM
  Activity%: 95.71%
[28]
  activity at 1 µM: 96.5%
[29]; 1 μM
  Activity%: 97.50%
[29]
  activity at 1 µM: 101%
[30]; 1 μM
  Activity%: 98.15%
[30]
  activity at 1 µM: 100%
[31]; 1 μM
  Activity%: 94.84%
[31]
  activity at 1 µM: 99.4%
[32]; 1 μM
  Activity%: 99.67%
[32]
  activity at 1 µM: 100%
[33]; 1 μM
  Activity%: 79.31%
[33]
  activity at 1 µM: 79.8%
